Data taken from US11655217B2, “Pyrazole MAGL inhibitors” (H. Lundbeck A/S, priority 2017, dated 2023).

Columns and labels:
FAAH = FAAH (Mus musculus (Mouse), UniProt O08914); assay: Mouse brain proteomes from inhibitor treated mice (oral gavage, sacrificed 4 h after administration, ABPP analysis), FAAH; conditions: 5 mg/kg oral gavage
Experimental: (§1) Preparation of Mouse Brain Proteomes from Inhibitor Treated Mice.
(§2) Inhibitors were administered to wild-type C57Bl/6J by oral gavage in a vehicle of polyethylene glycol.

MAGL = MAGL (Mus musculus (Mouse), UniProt O35678); assay: Mouse brain proteomes from inhibitor treated mice (oral gavage, sacrificed 4 h after administration, ABPP analysis); conditions: 5 mg/kg oral gavage
Sequence of MAGL (O35678 whole entry): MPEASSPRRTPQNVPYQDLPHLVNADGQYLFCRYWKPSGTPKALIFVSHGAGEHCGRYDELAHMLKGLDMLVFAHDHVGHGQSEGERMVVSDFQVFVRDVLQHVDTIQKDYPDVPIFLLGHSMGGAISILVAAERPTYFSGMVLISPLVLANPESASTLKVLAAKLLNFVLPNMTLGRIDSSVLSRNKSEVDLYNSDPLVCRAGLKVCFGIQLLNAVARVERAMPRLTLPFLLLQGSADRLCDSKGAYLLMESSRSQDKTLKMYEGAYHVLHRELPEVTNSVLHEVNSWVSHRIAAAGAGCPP
Experimental: as §1, §2

Sequence of FAAH (O08914 whole entry): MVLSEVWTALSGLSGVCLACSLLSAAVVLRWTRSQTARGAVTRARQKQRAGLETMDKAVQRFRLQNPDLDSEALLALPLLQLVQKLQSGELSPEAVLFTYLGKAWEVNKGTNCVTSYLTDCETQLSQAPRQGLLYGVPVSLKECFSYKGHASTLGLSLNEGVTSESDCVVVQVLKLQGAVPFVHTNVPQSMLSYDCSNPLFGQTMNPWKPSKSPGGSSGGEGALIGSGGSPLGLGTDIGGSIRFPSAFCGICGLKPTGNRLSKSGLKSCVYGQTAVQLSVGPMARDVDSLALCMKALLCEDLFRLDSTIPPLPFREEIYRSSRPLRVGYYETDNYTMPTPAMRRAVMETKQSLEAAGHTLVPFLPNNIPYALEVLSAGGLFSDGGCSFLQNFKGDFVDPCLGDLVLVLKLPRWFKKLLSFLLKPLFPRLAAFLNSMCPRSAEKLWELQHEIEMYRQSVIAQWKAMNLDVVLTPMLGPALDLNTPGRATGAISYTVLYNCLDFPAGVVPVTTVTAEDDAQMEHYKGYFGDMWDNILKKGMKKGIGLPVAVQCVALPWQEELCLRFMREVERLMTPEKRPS

Row | SMILES | FAAH % inh. 5 mg/kg (mouse) (FAAH) | MAGL % inh. 5 mg/kg (mouse) (MAGL)
1 | O=C(O)c1ccn(C(=O)N2CC3CN(Cc4cc(Cl)cc(C(F)(F)F)c4)CC3C2)n1 (centres unmarked) [Example 124, 1-(5-(3-chloro-5-(trifluoromethyl)benzyl)octahydro-pyrrolo[3,4-c]pyrrole-2-carbonyl)-1H-pyrazole-3-carboxylic acid] | C (% inhibition is greater than or equal to 25% and less than 50%) | D (% inhibition is greater than or equal to 0% and less than 25%)
2 | Cc1c(CO[C@H]2C[C@@H]3CN(C(=O)n4ccc(C(=O)O)n4)C[C@@H]3C2)cccc1C(F)(F)F [Example 159, 1-(trans-5-((2-methyl-3-(trifluoromethyl)benzyl)oxy)octa-hydrocyclopenta[c]pyrrole-2-carbonyl)-1H-pyrazole-3-carboxylic acid] | D (% inhibition is greater than or equal to 0% and less than 25%) | D (% inhibition is greater than or equal to 0% and less than 25%)
3 | O=C(O)c1ccn(C(=O)N2CCC3(CCCN3Cc3cc4ccc(C(F)(F)F)cc4s3)CC2)n1 [Example 185, 1-(1-((6-(trifluoromethyl)-benzo[b]thiophen-2-yl)methyl)-1,8-diazaspiro[4.5]-decane-8-carbonyl)-1H-pyrazole-3-carboxylic acid] | D (% inhibition is greater than or equal to 0% and less than 25%) | D (% inhibition is greater than or equal to 0% and less than 25%)
4 | O=C(O)c1ccn(C(=O)N2CCC(Oc3ccc(Cl)cc3N3CCCC3)CC2)n1 [Example 11, 1-(4-(4-Chloro-2-(pyrrolidin-1-yl)phenoxy)piperidine-1-carbonyl)-1H-pyrazole-3-carboxylic Acid] | D (% inhibition is greater than or equal to 0% and less than 25%) | D (% inhibition is greater than or equal to 0% and less than 25%)
5 | O=C(O)c1ccn(C(=O)N2CCN(Cc3ccc(Cl)cc3N3CC4COCC4C3)CC2)n1 (centres unmarked) [Example 111, 1-(4-(4-chloro-2-(tetrahydro-1H-furo[3,4-c]pyrrol-5(3H)-yl)benzyl)piperazine-1-carbonyl)-1H-pyrazole-3-carboxylic acid] | D (% inhibition is greater than or equal to 0% and less than 25%) | D (% inhibition is greater than or equal to 0% and less than 25%)
6 | O=C(O)c1nn(C(=O)N2CCC3(CCN(Cc4cc(Cl)ccc4C(F)(F)F)C3)CC2)cc1Cl [Example 133, 4-chloro-1-(2-(5-chloro-2-(trifluoromethyl)benzyl)-2,8-diazaspiro[4.5]decane-8-carbonyl)-1H-pyrazole-3-carboxylic acid] | D (% inhibition is greater than or equal to 0% and less than 25%) | D (% inhibition is greater than or equal to 0% and less than 25%)
7 | CN(Cc1ccc(C(F)(F)F)cc1N1CCOCC1)C1(C)CCN(C(=O)n2ccc(C(=O)O)n2)CC1 [Example 4, 1-(4-Methyl-4-(methyl(2-morpholino-4-(trifluoromethyl)benzyl)amino)piperidine-1-carbonyl)-1H-pyrazole-3-carboxylic Acid] | D (% inhibition is greater than or equal to 0% and less than 25%) | D (% inhibition is greater than or equal to 0% and less than 25%)
8 | O=C(O)c1ccn(C(=O)N2CCN(Cc3cccc(C(F)(F)F)c3N3CCCC3)CC2)n1 [Example 90, 1-(4-(2-(pyrrolidin-1-yl)-3-(trifluoromethyl)benzyl)piperazine-1-carbonyl)-1H-pyrazole-3-carboxylic acid] | D (% inhibition is greater than or equal to 0% and less than 25%) | D (% inhibition is greater than or equal to 0% and less than 25%)
9 | O=C(O)c1nn(C(=O)N2CC3CN(Cc4ccc(N5CCCC5)cc4C(F)(F)F)CC3C2)cc1Cl (centres unmarked) [Example 140, 4-chloro-1-(5-(4-(pyrrolidin-1-yl)-2-(trifluoromethyl)benzyl)octahydro-pyrrolo[3,4-c]pyrrole-2-carbonyl)-1H-pyrazole-3-carboxylic acid] | D (% inhibition is greater than or equal to 0% and less than 25%) | D (% inhibition is greater than or equal to 0% and less than 25%)
10 | O=C(O)c1nn(C(=O)N2CCC3(CCCN3Cc3cc4ccc(C(F)(F)F)cc4s3)CC2)cc1Cl [Example 139, 4-chloro-1-(1-((6-(trifluoromethyl)benzo[b]thiophen-2-yl)methyl)-1,8-diazaspiro[4.5]decane-8-carbonyl)-1H-pyrazole-3-carboxylic acid] | D (% inhibition is greater than or equal to 0% and less than 25%) | D (% inhibition is greater than or equal to 0% and less than 25%)
11 | O=C(O)c1ccn(C(=O)N2CCN(Cc3cc4cc(Cl)ccc4s3)CC2)n1 [Example 187, 1-(4-((5-chlorobenzo[b]thio-phen-2-yl)methyl)piperazine-1-carbonyl)-1H-pyrazole-3-carboxylic acid] | D (% inhibition is greater than or equal to 0% and less than 25%) | D (% inhibition is greater than or equal to 0% and less than 25%)
12 | O=C(O)c1ccn(C(=O)N2CCN(Cc3cccc(Oc4cc(C(F)(F)F)ccn4)c3)CC2)n1 [Example 57, 1-(4-(3-((4-(trifluoromethyl)pyridin-2-yl)oxy)benzyl)piperazine-1-carbonyl)-1H-pyrazole-3-carboxylic acid] | D (% inhibition is greater than or equal to 0% and less than 25%) | D (% inhibition is greater than or equal to 0% and less than 25%)
13 | O=C(O)c1ccn(C(=O)N2CCN(Cc3ccc(Cl)cc3N3CCCC3)CC2)n1 [Example 107, 1-(4-(4-chloro-2-(pyrrolidin-1-yl)benzyl)piperazine-1-carbonyl)-1H-pyrazole-3-carboxylic acid] | D (% inhibition is greater than or equal to 0% and less than 25%) | D (% inhibition is greater than or equal to 0% and less than 25%)
14 | O=C(O)c1ccn(C(=O)N2CCC(Oc3ccc(Cl)c(N4CCCC4)c3)CC2)n1 [Example 121, 1-(4-(4-chloro-3-(pyrrolidin-1-yl)phenoxy)piperidine-1-carbonyl)-1H-pyrazole-3-carboxylic acid] | D (% inhibition is greater than or equal to 0% and less than 25%) | D (% inhibition is greater than or equal to 0% and less than 25%)
15 | O=C(O)c1ccn(C(=O)N2CCC3(CCCN3Cc3cc(N4CCCC4)cc(C(F)(F)F)c3)CC2)n1 [Example 88, 1-(1-(3-(pyrrolidin-1-yl)-5-(trifluoromethyl)benzyl)-1,8-diazaspiro[4.5]decane-8-carbonyl)-1-1H-pyrazole-3-carboxylic acid] | D (% inhibition is greater than or equal to 0% and less than 25%) | D (% inhibition is greater than or equal to 0% and less than 25%)
16 | Cc1c(CN2CCN(C(=O)n3ccc(C(=O)O)n3)CC2)[nH]c2ccc(Cl)cc12 [Example 188, 1-(4-((5-chloro-3-methyl-1H-indol-2-yl)methyl)piperazine-1-carbonyl)-1H-pyrazole-3-carboxylic acid] | D (% inhibition is greater than or equal to 0% and less than 25%) | D (% inhibition is greater than or equal to 0% and less than 25%)
